According to PubChem BioAssay (NCI):
Several values for one entry are separate records, joined by “and”; a condition that tells them apart may be missing. Identical values can stand only once.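 Dose response: 5 concentrations. Exposure: 48 h. Format: 96-well plates. Endpoint: linear interpolation; highest concentration if not reached. Abbreviation: GI50, concentration required for 50% inhibition of growth. TGI is the concentration that stops growth completely.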

Key:
Assay in all cases: NCI tumour cell line growth inhibition, 48 h
[1] = system: 786-0 renal
[2] = system: A549 NSCLC
[3] = system: ACHN renal
[4] = system: CAKI-1 renal
[5] = system: CCRF-CEM leukemia
[6] = system: COLO 205 colon
[7] = system: DLD-1 colon
[8] = system: DMS 114 small cell lung
[9] = system: DMS 273 small cell lung
[10] = system: EKVX NSCLC
[11] = system: HCC-2998 colon
[12] = system: HCT-116 colon
[13] = system: HCT-15 colon
[14] = system: HL-60(TB) leukemia
[15] = system: HOP-18 NSCLC
[16] = system: HOP-62 NSCLC
[17] = system: HOP-92 NSCLC
[18] = system: HT29 colon
[19] = system: IGROV1 ovarian
[20] = system: K-562 leukemia
[21] = system: KM20L2 colon
[22] = system: LOX IMVI melanoma
[23] = system: LXFL 529 NSCLC
[24] = system: M14 melanoma
[25] = system: M19-MEL melanoma
[26] = system: MALME-3M melanoma
[27] = system: MOLT-4 leukemia
[28] = system: NCI-H226 lung
[29] = system: NCI-H23 lung
[30] = system: NCI-H460 lung
[31] = system: NCI-H522 lung
[32] = system: OVCAR-3 ovarian
[33] = system: OVCAR-4 ovarian
[34] = system: OVCAR-5 ovarian
[35] = system: OVCAR-8 ovarian
[36] = system: RPMI-8226 leukemia
[37] = system: RXF 393 renal
[38] = system: RXF-631 renal
[39] = system: SF-268 CNS
[40] = system: SF-295 CNS
[41] = system: SF-539 CNS
[42] = system: SK-MEL-2 melanoma
[43] = system: SK-MEL-28 melanoma
[44] = system: SK-MEL-5 melanoma
[45] = system: SK-OV-3 ovarian
[46] = system: SN12C renal
[47] = system: SNB-19 CNS
[48] = system: SNB-75 CNS
[49] = system: SNB-78 CNS
[50] = system: SR leukemia
[51] = system: SW-620 colon
[52] = system: TK-10 renal
[53] = system: U251 CNS
[54] = system: UACC-257 melanoma
[55] = system: UACC-62 melanoma
[56] = system: UO-31 renal
[57] = system: XF 498 CNS
[58] = system: A498 renal
[59] = system: KM12 colon
[60] = system: MCF7 breast
[61] = system: NCI/ADR-RES ovarian
[62] = system: P388 leukemia
[63] = system: P388/ADR leukemia
[64] = system: SN12K1 renal

## N#CCCN(CCC#N)c1ccc(C(Sc2ccccc2)C(NC(=O)c2cc([N+](=O)[O-])ccc2Cl)C(=O)Sc2ccccc2)cc1 (stereo unspecified)
[1]
  TGI: 3.95 µM
[2]
  GI50: 0.954 µM
  TGI: 6.47 µM and 13.2 µM
[3]
  GI50: 2.81 µM
  TGI: 16.3 µM
[4]
  TGI: 5.71 µM and 6.5 µM
[5]
  TGI: 0.765 µM and 0.479 µM
[6]
  GI50: 2.9 µM
  TGI: 6.75 µM and 7.77 µM
[7]
  GI50: 1.8 µM
  TGI: 9.43 µM and 4.58 µM
[8]
  GI50: 1.34 µM
  TGI: 7.78 µM and 4.1 µM
[9]
  TGI: 5.15 µM
[10]
  GI50: 5.74 µM
  TGI: 9.96 µM and 25.5 µM
[11]
  TGI: 19.7 µM
[12]
  GI50: 1.85 µM
  TGI: 5.51 µM and 5.62 µM
[13]
  GI50: 2.25 µM
  TGI: 11.2 µM
[14]
  GI50: 0.416 µM
  TGI: 3.62 µM and 2.29 µM
[15]
  TGI: 47.3 µM
[16]
  GI50: 3.87 µM
  TGI: 12 µM
[17]
  TGI: 18.7 µM
[18]
  GI50: 2.59 µM
  TGI: 7.58 µM
[19]
  GI50: 1.49 µM
  TGI: 8.99 µM and 4.2 µM
[20]
  GI50: 1.71 µM
  TGI: 7.42 µM and 6.69 µM
[21]
  TGI: 6.47 µM and 11.3 µM
[22]
  TGI: 5.71 µM
[23]
  GI50: 1.63 µM
  TGI: 11.9 µM
[24]
  GI50: 1.61 µM
  TGI: 4.07 µM
[25]
  GI50: 2.95 µM
  TGI: 11.9 µM
[26]
  TGI: 22 µM
[27]
  GI50: 0.565 µM
  TGI: 2.56 µM and 2.95 µM
[28]
  TGI: 5.16 µM and 5.01 µM
[29]
  GI50: 2.84 µM
  TGI: 13.5 µM
[30]
  TGI: 16.8 µM
[31]
  TGI: 5.5 µM and 1.6 µM
[32]
  GI50: 2.14 µM
  TGI: 8.36 µM and 7.63 µM
[33]
  GI50: 3.92 µM
  TGI: 15.7 µM
[34]
  TGI: 11.7 µM
[35]
  GI50: 1.63 µM
  TGI: 4.95 µM and 3.69 µM
[36]
  TGI: 5.66 µM
[37]
  GI50: 0.415 µM
  TGI: 5.81 µM and 3.28 µM
[38]
  GI50: 1.53 µM
  TGI: 4.01 µM
[39]
  GI50: 1.27 µM
  TGI: 8.86 µM and 5.95 µM
[40]
  TGI: 13.1 µM
[41]
  TGI: 4.11 µM and 3.79 µM
[42]
  TGI: 4.64 µM
[43]
  GI50: 3.24 µM
  TGI: 7.06 µM and 14.2 µM
[44]
  TGI: 15.6 µM
[45]
  GI50: 7.8 µM
  TGI: 13.2 µM
[46]
  TGI: 4.54 µM and 6.19 µM
[47]
  GI50: 3.98 µM
  TGI: 18.6 µM
[48]
  GI50: 1.85 µM
  TGI: 7.19 µM
[49]
  GI50: 2.97 µM
  TGI: 34.5 µM
[50]
  TGI: 3.9 µM
[51]
  GI50: 3.77 µM
  TGI: 14.3 µM
[52]
  GI50: 3.97 µM
  TGI: 9.62 µM
[53]
  TGI: 4.15 µM and 6.01 µM
[54]
  GI50: 3.06 µM
  TGI: 14.3 µM
[55]
  GI50: 2.58 µM
  TGI: 6.02 µM and 10.5 µM
[56]
  GI50: 1.11 µM
  TGI: 4.77 µM
[57]
  TGI: 21.3 µM

## CSc1cc(=O)n2c3ccccc3c3ccnc1c32
[58]
  TGI: > 100 µM
[2]
  TGI: > 100 µM
[5]
  TGI: > 100 µM
[6]
  TGI: > 100 µM
[7]
  TGI: > 100 µM
[8]
  TGI: > 100 µM
[9]
  TGI: > 100 µM
[10]
  TGI: 56.8 µM
[11]
  TGI: > 100 µM
[12]
  TGI: > 100 µM
[13]
  TGI: > 100 µM
[14]
  TGI: > 100 µM
[15]
  TGI: 98.2 µM
[16]
  TGI: > 100 µM
[17]
  TGI: > 100 µM
[18]
  TGI: > 100 µM
[19]
  TGI: > 79.1 µM
[20]
  TGI: > 100 µM
[59]
  TGI: > 100 µM
[21]
  TGI: > 100 µM
[22]
  TGI: > 100 µM
[25]
  TGI: > 100 µM
[26]
  TGI: > 100 µM
[60]
  TGI: > 100 µM
[27]
  TGI: > 100 µM
[28]
  TGI: > 100 µM
[29]
  TGI: > 100 µM
[30]
  TGI: > 100 µM
[31]
  TGI: > 100 µM
[61]
  TGI: > 100 µM
[32]
  TGI: > 100 µM
[33]
  TGI: > 100 µM
[34]
  TGI: > 100 µM
[35]
  TGI: > 100 µM
[62]
  TGI: > 100 µM
[63]
  TGI: > 100 µM
[36]
  TGI: > 100 µM
[37]
  TGI: > 100 µM
[39]
  TGI: > 75.5 µM
[40]
  TGI: > 100 µM
[41]
  TGI: > 71.4 µM
[42]
  TGI: > 100 µM
[43]
  TGI: > 100 µM
[44]
  TGI: > 100 µM
[45]
  TGI: 97.5 µM
[46]
  TGI: > 100 µM
[64]
  TGI: > 100 µM
[47]
  TGI: > 100 µM
[48]
  TGI: > 94.3 µM
[49]
  TGI: > 100 µM
[51]
  TGI: > 100 µM
[53]
  TGI: > 100 µM
[54]
  TGI: > 100 µM
[55]
  TGI: > 100 µM
[56]
  TGI: > 100 µM
